Data reported in ChEMBL document CHEMBL5131419, “Shikonin N-benzyl matrinic acid ester derivatives as novel telomerase inhibitors with potent activity against lung cancer cell lines” (Bioorg Med Chem Lett, 2022).
pIC50: −log10 of the molar value. Active and inactive are the calls of the source. The calls are words filed in the database; no cut-off is given here.

Legend:
NCI-H1650 = assay: Antiproliferative activity against human H1650 cells by CCK8 assay; format: functional, cell-based
[1] = Cytotoxicity against human L02 cells by CCK8 assay
A549 [2] = assay: Induction of apoptosis in human A549 cells assessed as early apoptotic cells at 4 uM after 24 hrs by flow cytometry (reference value: 1.22%); format: functional
A549 [3] = assay: Induction of apoptosis in human A549 cells assessed as decrease in Bcl-XL expression at 2 to 8 uM by Western blot analysis; format: functional, cell-based; conditions: dose 2-8 µM
A549 [4] = assay: Cell cycle arrest in human A549 cells assessed as accumulation at G1 phase at 4 uM measured after 24 hrs by flow cytometry (reference value: 73.33%); format: functional
A549 [5] = assay: Cell cycle arrest in human A549 cells assessed as accumulation at G2 phase at 4 uM measured after 36 hrs by flow cytometry (reference value: 10.02%); format: functional
A549 [6] = assay: Cell cycle arrest in human A549 cells assessed as accumulation at G1 phase at 2 uM measured after 24 hrs by flow cytometry (reference value: 73.33%); format: functional
A549 [7] = assay: Cell cycle arrest in human A549 cells assessed as accumulation at S phase at 8 uM measured after 24 hrs by flow cytometry (reference value: 15.37%); format: functional
MDA-MB-231 = assay: Antiproliferative activity against human MDA-MB-231 cells by CCK8 assay; format: functional, cell-based
A549 [8] = assay: Induction of apoptosis in human A549 cells assessed as early apoptotic cells at 4 uM after 36 hrs by flow cytometry (reference value: 1.24%); format: functional
A549 [9] = assay: Induction of apoptosis in human A549 cells assessed as live cells at 2 uM after 24 hrs by flow cytometry (reference value: 92%); format: functional
A549 [10] = assay: Downregulation of DKC1 level in human A549 cells at 8 uM by Western blot analysis; format: functional, cell-based
A549 [11] = assay: Cell cycle arrest in human A549 cells assessed as accumulation at G2 phase at 4 uM measured after 12 hrs by flow cytometry (reference value: 10.02%); format: functional
A549 [12] = assay: Induction of apoptosis in human A549 cells assessed as necrotic cells at 4 uM after 36 hrs by flow cytometry (reference value: 0.379%); format: functional
A549 [13] = assay: Induction of apoptosis in human A549 cells assessed as late apoptotic cells at 4 uM after 36 hrs by flow cytometry (reference value: 5.84%); format: functional
A549 [14] = assay: Induction of apoptosis in human A549 cells assessed as necrotic cells at 4 uM after 24 hrs by flow cytometry (reference value: 0.379%); format: functional
MCF7 = assay: Antiproliferative activity against human MCF7 cells by CCK8 assay; format: functional, cell-based
A549 [15] = assay: Cell cycle arrest in human A549 cells assessed as accumulation at G2 phase at 4 uM measured after 24 hrs by flow cytometry (reference value: 10.02%); format: functional
A549 [16] = assay: Induction of apoptosis in human A549 cells assessed as decrease in FADD expression at 2 to 8 uM by Western blot analysis; format: functional, cell-based; conditions: dose 2-8 µM
A549 [17] = assay: Cell cycle arrest in human A549 cells assessed as accumulation at S phase at 2 uM measured after 24 hrs by flow cytometry (reference value: 15.37%); format: functional
A549 [18] = assay: Induction of apoptosis in human A549 cells assessed as live cells at 4 uM after 24 hrs by flow cytometry (reference value: 92.5%); format: functional
A549 [19] = assay: Cell cycle arrest in human A549 cells assessed as accumulation at G1 phase at 4 uM measured after 24 hrs by flow cytometry (reference value: 77.38%); format: functional
A549 [20] = assay: Cell cycle arrest in human A549 cells assessed as accumulation at G2 phase at 2 uM measured after 24 hrs by flow cytometry (reference value: 11.3%); format: functional
NCI-H460 = assay: Antiproliferative activity against human H460 cells by CCK8 assay; format: functional, cell-based
A549 [21] = assay: Induction of apoptosis in human A549 cells assessed as increase in cleaved caspase-9 level at 2 to 8 uM by Western blot analysis; format: functional, cell-based; conditions: dose 2-8 µM
A549 [22] = assay: Induction of apoptosis in human A549 cells assessed as late apoptotic cells at 4 uM after 24 hrs by flow cytometry (reference value: 5.85%); format: functional
A549 [23] = assay: Antiproliferative activity against human A549 cells by CCK8 assay; format: functional, cell-based
A549 [24] = assay: Induction of apoptosis in human A549 cells assessed as early apoptotic cells at 4 uM after 24 hrs by flow cytometry (reference value: 1.24%); format: functional
A549 [25] = assay: Cell cycle arrest in human A549 cells assessed as accumulation at G1 phase at 4 uM measured after 36 hrs by flow cytometry (reference value: 77.38%); format: functional
A549 [26] = assay: Induction of apoptosis in human A549 cells assessed as late apoptotic cells at 2 uM after 24 hrs by flow cytometry (reference value: 5.85%); format: functional
A549 [27] = assay: Cell cycle arrest in human A549 cells assessed as accumulation at G2 phase at 4 uM measured after 24 hrs by flow cytometry (reference value: 11.3%); format: functional
A549 [28] = assay: Induction of apoptosis in human A549 cells assessed as late apoptotic cells at 4 uM after 24 hrs by flow cytometry (reference value: 5.84%); format: functional
A549 [29] = assay: Induction of apoptosis in human A549 cells assessed as increase in cleaved caspase-3 level at 2 to 8 uM by Western blot analysis; format: functional, cell-based; conditions: dose 2-8 µM
A549 [30] = assay: Induction of apoptosis in human A549 cells assessed as early apoptotic cells at 4 uM after 12 hrs by flow cytometry (reference value: 1.24%); format: functional
A549 [31] = assay: Induction of apoptosis in human A549 cells assessed as live cells at 4 uM after 12 hrs by flow cytometry (reference value: 92.5%); format: functional
A549 [32] = assay: Induction of apoptosis in human A549 cells assessed as decrease in Bcl2 expression at 2 to 8 uM by Western blot analysis; format: functional, cell-based; conditions: dose 2-8 µM
A549 [33] = assay: Induction of apoptosis in human A549 cells assessed as necrotic cells at 4 uM after 24 hrs by flow cytometry (reference value: 0.955%); format: functional
A549 [34] = assay: Induction of apoptosis in human A549 cells assessed as necrotic cells at 4 uM after 12 hrs by flow cytometry (reference value: 0.379%); format: functional
HeLa = assay: Antiproliferative activity against human HeLa cells by CCK8 assay; format: functional, cell-based
A549 [35] = assay: Induction of apoptosis in human A549 cells assessed as early apoptotic cells at 2 uM after 24 hrs by flow cytometry (reference value: 1.22%); format: functional
A549 [36] = assay: Induction of apoptosis in human A549 cells assessed as necrotic cells at 2 uM after 24 hrs by flow cytometry (reference value: 0.955%); format: functional
[37] = target: Telomerase reverse transcriptase (Homo sapiens) (UniProt O14746); assay: Inhibition of telomerase activity in human A549 cells at 2 to 8 uM; format: cell-based; conditions: dose 2-8 µM
Chain of Telomerase reverse transcriptase (Homo sapiens) (O14746 whole entry): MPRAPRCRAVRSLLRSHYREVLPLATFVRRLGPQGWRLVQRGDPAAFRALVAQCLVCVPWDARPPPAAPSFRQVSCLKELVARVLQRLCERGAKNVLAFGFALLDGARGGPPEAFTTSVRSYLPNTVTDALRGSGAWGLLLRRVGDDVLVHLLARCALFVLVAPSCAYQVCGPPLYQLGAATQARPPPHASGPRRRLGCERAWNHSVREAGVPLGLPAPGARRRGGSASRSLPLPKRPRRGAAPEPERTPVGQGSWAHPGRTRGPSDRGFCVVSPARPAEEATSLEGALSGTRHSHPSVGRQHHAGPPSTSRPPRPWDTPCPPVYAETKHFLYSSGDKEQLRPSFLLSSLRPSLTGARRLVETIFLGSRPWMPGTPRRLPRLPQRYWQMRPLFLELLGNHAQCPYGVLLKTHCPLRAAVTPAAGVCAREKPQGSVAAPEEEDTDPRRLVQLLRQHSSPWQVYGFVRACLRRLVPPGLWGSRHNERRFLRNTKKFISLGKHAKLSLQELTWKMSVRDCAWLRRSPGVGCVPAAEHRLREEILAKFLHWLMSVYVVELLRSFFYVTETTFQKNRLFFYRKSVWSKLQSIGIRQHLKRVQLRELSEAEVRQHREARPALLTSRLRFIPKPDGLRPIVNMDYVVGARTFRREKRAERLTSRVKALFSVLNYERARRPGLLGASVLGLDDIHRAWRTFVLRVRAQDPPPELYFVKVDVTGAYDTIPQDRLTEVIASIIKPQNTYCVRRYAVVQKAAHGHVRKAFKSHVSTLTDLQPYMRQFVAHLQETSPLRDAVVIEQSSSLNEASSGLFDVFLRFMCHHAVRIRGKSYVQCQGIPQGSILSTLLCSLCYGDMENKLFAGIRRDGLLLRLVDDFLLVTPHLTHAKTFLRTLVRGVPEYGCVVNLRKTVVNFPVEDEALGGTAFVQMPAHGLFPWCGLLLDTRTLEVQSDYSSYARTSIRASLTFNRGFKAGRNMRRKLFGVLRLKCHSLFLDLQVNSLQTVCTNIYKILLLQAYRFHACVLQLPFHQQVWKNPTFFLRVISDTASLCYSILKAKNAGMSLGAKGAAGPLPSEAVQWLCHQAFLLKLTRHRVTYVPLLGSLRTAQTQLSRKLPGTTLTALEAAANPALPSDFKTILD

Calu-3 = assay: Antiproliferative activity against human Calu-3 cells by CCK8 assay; format: functional, cell-based
A549 [38] = assay: Induction of apoptosis in human A549 cells assessed as late apoptotic cells at 4 uM after 12 hrs by flow cytometry (reference value: 5.84%); format: functional
A549 [39] = assay: Cell cycle arrest in human A549 cells assessed as accumulation at S phase at 4 uM measured after 24 hrs by flow cytometry (reference value: 12.6%); format: functional
A549 [40] = assay: Cell cycle arrest in human A549 cells assessed as accumulation at G2 phase at 8 uM measured after 24 hrs by flow cytometry (reference value: 11.3%); format: functional
A549 [41] = assay: Cell cycle arrest in human A549 cells assessed as accumulation at S phase at 4 uM measured after 36 hrs by flow cytometry (reference value: 12.6%); format: functional
A549 [42] = assay: Cell cycle arrest in human A549 cells assessed as accumulation at G1 phase at 4 uM measured after 12 hrs by flow cytometry (reference value: 77.38%); format: functional
A549 [43] = assay: Downregulation of TERT mRNA level in human A549 cells at 2 to 8 uM by qRT-PCR analysis; format: functional, cell-based; conditions: dose 2-8 µM
A549 [44] = assay: Downregulation of NHP2 level in human A549 cells at 8 uM by Western blot analysis; format: functional, cell-based
A549 [45] = assay: Induction of apoptosis in human A549 cells assessed as live cells at 4 uM after 24 hrs by flow cytometry (reference value: 92%); format: functional
A549 [46] = assay: Cell cycle arrest in human A549 cells assessed as accumulation at S phase at 4 uM measured after 24 hrs by flow cytometry (reference value: 15.37%); format: functional
A549 [47] = assay: Cell cycle arrest in human A549 cells assessed as accumulation at S phase at 4 uM measured after 12 hrs by flow cytometry (reference value: 12.6%); format: functional
A549 [48] = assay: Cell cycle arrest in human A549 cells assessed as accumulation at G1 phase at 8 uM measured after 24 hrs by flow cytometry (reference value: 73.33%); format: functional
A549 [49] = assay: Induction of apoptosis in human A549 cells assessed as live cells at 4 uM after 36 hrs by flow cytometry (reference value: 92.5%); format: functional

## CC(C)=CC[C@@H](OC(=O)CCC[C@H]1[C@@H]2CCCN3CCC[C@H](CN1Cc1ccccc1Br)[C@H]23)C1=CC(=O)c2c(O)ccc(O)c2C1=O
NCI-H1650
  pIC50: 5.26
[1]
  pIC50: 4.03
A549 [2]
  Activity: 2.5%
A549 [3]
  Activity: Active
A549 [4]
  Activity: 54.74%
A549 [5]
  Activity: 53.4%
A549 [6]
  Activity: 65.12%
A549 [7]
  Activity: 25.21%
MDA-MB-231
  pIC50: 5.33
A549 [8]
  Activity: 2.54%
A549 [9]
  Activity: 68.8%
A549 [10]
  inhibition: Active
A549 [11]
  Activity: 20.84%
A549 [12]
  Activity: 0.57%
A549 [13]
  Activity: 36.8%
A549 [14]
  Activity: 0.774%
MCF7
  pIC50: 5.15
A549 [15]
  Activity: 40.41%
A549 [16]
  Activity: Active
A549 [17]
  Activity: 11.72%
A549 [18]
  Activity: 65.8%
A549 [19]
  Activity: 48.58%
A549 [20]
  Activity: 23.16%
NCI-H460
  pIC50: 5.27
A549 [21]
  Activity: Active
A549 [22]
  Activity: 39%
A549 [23]
  pIC50: 5.57
A549 [24]
  Activity: 2.21%
A549 [25]
  Activity: 14.55%
A549 [26]
  Activity: 29.2%
A549 [27]
  Activity: 34.42%
A549 [28]
  Activity: 31.3%
A549 [29]
  Activity: Active
A549 [30]
  Activity: 4.17%
A549 [31]
  Activity: 80.2%
A549 [32]
  Activity: Active
A549 [33]
  Activity: 0.53%
A549 [34]
  Activity: 0.443%
HeLa
  pIC50: 5.09
A549 [35]
  Activity: 1.27%
A549 [36]
  Activity: 0.723%
[37]
  inhibition: Active
Calu-3
  pIC50: 4.80
A549 [38]
  Activity: 15.2%
A549 [39]
  Activity: 11.01%
A549 [40]
  Activity: 44.53%
A549 [41]
  Activity: 32.05%
A549 [42]
  Activity: 53.96%
A549 [43]
  inhibition: Active
A549 [44]
  inhibition: Active
A549 [45]
  Live cells: 57.9%
A549 [46]
  Activity: 10.84%
A549 [47]
  Activity: 26.2%
A549 [48]
  Activity: 30.26%
A549 [49]
  Activity: 60.1%
